Experimental findings from patent publication US20230371511A1, “MIXTURES CONTAINING CYCLOBUTRIFLURAM” (BASF SE, priority 2020, published 2023) are described below.

Common to all, as to assay type: cell-based
Details in all cases: single active, 7 days after inoculation

In one assay the test system is Alternaria solani. As to the kind of experiment: Microtest: activity against early blight caused by Alternaria solani (MTP growth, 405 nm). An excerpt: (§1) The active compounds were formulated separately as a stock solution having a concentration of 10000 ppm in dimethyl sulfoxide.
(§2) The measured parameters were compared to the growth of the active compound-free control variant (100%) and the fungus-free blank value to determine the relative growth in % of the pathogens in the respective active compounds.
(§3) These percentages were converted into efficacies.
The stock solutions were mixed according to the ratio, pipetted onto a micro titer plate (MTP) and diluted with water to the stated concentrations. A spore suspension of Alternaria solani in an aqueous biomalt or yeast-bactopeptone-glycerine or DOB solution was then added. The plates were placed in a water vapor-saturated chamber at a temperature of 18° C. Using an absorption photometer, the MTPs were measured at 405 nm 7 days after the inoculation.
(§4) An efficacy of 0 means that the growth level of the pathogens corresponds to that of the untreated control; an efficacy of 100 means that the pathogens were not growing.
(§5) The expected efficacies of active compound mixtures were determined using Colby's formula [R. S. Colby, “Calculating synergistic and antagonistic responses of herbicide combinations”, Weeds 15, 20-22 (1967)] and compared with the observed efficacies.

Assay [1] has as its system Colletotrichum orbiculare. As to the kind of experiment: Microtest: activity against anthracnose caused by Colletotrichum orbiculare (MTP growth, 405 nm).
From the text: as §1, §2, §3
The stock solutions were mixed according to the ratio, pipetted onto a micro titer plate (MTP) and diluted with water to the stated concentrations. A spore suspension of Colletotrichum orbiculare in an aqueous bio malt solution was then added. The plates were placed in a water vapor-saturated chamber at a temperature of 18° C. Using an absorption photometer, the MTPs were measured at 405 nm 7 days after the inoculation.
as §4, §5

In another assay the test system is Cercospora sojina. As to the kind of experiment: Microtest: activity against Cercospora sojina (MTP growth, 405 nm). On the procedure: as §1
The stock solutions were mixed according to the ratio, pipetted onto a micro titer plate (MTP) and diluted with water to the stated concentrations. A spore suspension of Cercospora sojina in an aqueous biomalt or yeast-bactopeptone-glycerine or COB solution was then added. The plates were placed in a water vapor-saturated chamber at a temperature of 18° C. Using an absorption photometer, the MTPs were measured at 405 nm 7 days after the inoculation.
as §2, §3, §4, §5

In another assay the test system is Septoria tritici. Kind of assay: Microtest: activity against leaf blotch on wheat caused by Septoria tritici (MTP growth, 405 nm). How it is done: as §1
The stock solutions were mixed according to the ratio, pipetted onto a micro titer plate (MTP) and diluted with water to the stated concentrations. A spore suspension of Septoria tritici in an aqueous biomalt or yeast-bactopeptone-glycerine or DOB solution was then added. The plates were placed in a water vapor-saturated chamber at a temperature of 18° C. Using an absorption photometer, the MTPs were measured at 405 nm 7 days after the inoculation.
as §2, §3, §4, §5

A further assay has as its system Rhizoctonia solani. As to the kind of experiment: Microtest: activity against Rhizoctonia solani (MTP growth, 405 nm). On the procedure: as §1
The stock solutions were mixed according to the ratio, pipetted onto a micro titer plate (MTP) and diluted with water to the stated concentrations. A spore suspension of Rhizoctonia solani in an aqueous biomalt or yeast-bactopeptone-glycerine or COB solution was then added. The plates were placed in a water vapor-saturated chamber at a temperature of […]. Using an absorption photometer, the MTPs were measured at 405 nm 7 days after the inoculation.
as §2, §3, §4, §5

Setting [2] is: 0.25 ppm, 0 = growth as untreated control, 100 = no growth.

`Cc1nc2c(F)c(F)ccc2cc1Oc1cccc(F)c1C(C)(C)O` [Ipflufenoquin, ipflufenoquin]: the figures for the Observed efficacy (in the assay on Alternaria solani (0.004 ppm); in assay [1] (0.25 ppm)) were 9 and 25, respectively.

With `CON(C(=O)c1cn(C)nc1C(F)F)C(C)Cc1c(Cl)cc(Cl)cc1Cl` (stereo not drawn) [Pydiflumetofen, pydiflumetofen], the Observed efficacy with Cercospora sojina (0.00025 ppm) worked out at 9; in the assay with Septoria tritici (0.004 ppm), 5; in the assay with Septoria tritici (0.016 ppm), 23.

Take `Cn1cc(C(=O)Nc2ccccc2-c2cc(F)c(F)c(F)c2)c(C(F)F)n1` [Fluxapyroxad, fluxapyroxad]: the Observed efficacy with Rhizoctonia solani (0.25 ppm) was 46.

Take `Cn1nnnc1/C(=N\OCc1cccc(NC(=O)OC(C)(C)C)n1)c1ccccc1` [Picarbutrazox, picarbutrazox]: the Observed efficacy in the assay with Alternaria solani (0.063 ppm) worked out at 8.

`CC(O)(Cn1cncn1)c1ccc(Oc2ccc(Cl)cc2)cc1C(F)(F)F` (stereo not drawn) [Mefentrifluconazol, mefentrifluconazole]: the figures for the Observed efficacy in the assay on Septoria tritici (0 ppm (so in the source)), in the assay on Septoria tritici (0.063 ppm) and with Septoria tritici (setting [2]) were 68, 61 and 70, respectively.

As to `COCC(=O)N(c1c(C)cccc1C)[C@H](C)C(=O)OC` [Mefenoxam, mefenoxam], the Observed efficacy was 6 with Septoria tritici (0.063 ppm), 4 with Septoria tritici (1 ppm) and 2 in the assay on Septoria tritici (4 ppm).

Regarding `Cc1cc(C(F)(F)F)nn1CC(=O)N1CCC(c2nc(C3=NOC(c4c(F)cccc4F)C3)cs2)CC1` (stereo not drawn) [Oxathiapirolin, oxathiapiprolin], the Observed efficacy in the assay with Alternaria solani (0.063 ppm) is reported as 0.

Consider `O=C(NC1CCC1c1ccc(Cl)cc1Cl)c1cccnc1C(F)(F)F` (stereo in doubt) [Cyclobutrifluram, cyclobutrifluram], for which the Observed efficacy in the assay with Alternaria solani (0.004 ppm) is 40; in the assay with Alternaria solani (0.016 ppm), 74; in assay [1] (1 ppm), 1; in the assay with Cercospora sojina (0.016 ppm), 18; in the assay on Septoria tritici (0.063 ppm) it was 0; in the assay with Septoria tritici (setting [2]), 7. In addition, in the assay on Rhizoctonia solani (1 ppm), the Observed efficacy is 0.
